Results from patent publication US20080146614A1, “Therapeutic Agents” (priority 2004, published 2008).

Molecular target: T1, CB1 receptor (Homo sapiens, UniProt P21554)
T1 construct: expressed in transfected cells
Assay: [35S]-GTPγS binding assay on membranes from cells stably transfected with the CB1 gene, inhibition of agonist CP55940 (EC80)
Assay type: biochemical
Conditions: half maximal inhibition of GTPγS binding, EC80 concentration of CP55940
Protocol: 10 μg of membranes prepared from cells stably transfected with the CB1 gene were suspended in 200 μl of 100 mM NaCl, 5 mM MgCl2, 1 mM EDTA, 50 mM HEPES (pH 7.4), 1 mM DTT, 0.1% BSA and 100 μM GDP. To this was added an EC80 concentration of agonist (CP55940), the required concentration of test compound and 0.1 μCi [^35S]-GTPγS. The reaction was allowed to proceed at 30° C. for 45 min. Samples were then transferred on to GF/B filters using a cell harvester and washed with wash buffer (50 mM Tris (pH 7.4), 5 mM MgCl2, 50 mM NaCl). Filters were then covered with scintilant and counted for the amount of [^35S]-GTPγS retained by the filter.
Activity is measured in the absence of all ligands (minimum activity) or in the presence of an EC80 concentration of CP55940 (maximum activity). These activities are set as 0% and 100% activity respectively. At various concentrations of novel ligand, activity is calculated as a percentage of the maximum activity and plotted. The data are fitted using the equation y=A+((B−A)/1+((C/x)UD)) and the IC50 value determined as the concentration required to give half maximal inhibition of GTPγS binding under the conditions used.

T1 sequence (P21554 whole entry): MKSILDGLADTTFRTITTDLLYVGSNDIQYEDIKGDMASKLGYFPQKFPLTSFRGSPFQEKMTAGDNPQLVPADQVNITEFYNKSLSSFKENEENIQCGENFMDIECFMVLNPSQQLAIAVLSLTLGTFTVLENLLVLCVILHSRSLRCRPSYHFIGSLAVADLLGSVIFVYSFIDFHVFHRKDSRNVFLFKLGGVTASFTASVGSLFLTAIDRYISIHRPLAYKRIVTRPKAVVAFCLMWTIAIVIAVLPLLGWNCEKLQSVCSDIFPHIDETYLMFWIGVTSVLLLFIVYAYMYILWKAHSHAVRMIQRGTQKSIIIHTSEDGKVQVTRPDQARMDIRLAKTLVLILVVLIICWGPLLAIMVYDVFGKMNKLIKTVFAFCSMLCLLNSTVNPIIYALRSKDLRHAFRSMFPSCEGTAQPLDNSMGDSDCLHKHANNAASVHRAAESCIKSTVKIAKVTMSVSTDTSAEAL

## CCCS(=O)(=O)Oc1ccc(-c2c(CO)c(C(=O)NN3CCCCC3)nn2-c2ccc(Cl)cc2Cl)cc1 [Example 1, Propane-1-sulfonic acid 4-[2-(2,4-dichlorophenyl)-4-hydroxymethyl-5-(piperidin-1-ylcarbamoyl)-2H-pyrazol-3-yl]-phenyl ester]
  IC50: 3.3 nM
